Reference: US7598245B2 (Vertex Pharmaceuticals Incorporated, priority 2003, dated 2009)

Assays:
Format in all cases: biochemical
CDK-2/Cyclin A = biological target: T1, CDK-2/Cyclin A (Homo sapiens, UniProt P24941); assay: Inhibition of CDK-2, coupled enzyme assay; conditions: 100 μM ATP, 30° C.
T1 construct: 25 nM CDK-2/Cyclin A
Protocol: Compounds are screened for their ability to inhibit CDK-2/Cyclin A using a standard coupled enzyme assay [Fox et al. Protein Sci. 1998, 7, 2249]. Reactions were carried out in 100 mM HEPES (pH 7.5), 10 mM MgCl2, 25 mM NaCl, 1 mM DTT and 1.5% DMSO. Final substrate concentrations in the assay are 100 μM ATP (Sigma chemicals) and 100 μM peptide (American Peptide, Sunnyvale, Calif.). Assays are carried out at 30° C. and 25 nM CDK-2/Cyclin A. Final concentrations of the components of the coupled enzyme system are 2.5 mM phosphoenolpyruvate, 350 μM NADH, 30 μg/ml pyruvate kinase and 10 μg/ml lactate dehydrogenase.
An assay stock buffer solution is prepared containing all of the reagents listed above, with the exception of CDK-2/Cyclin A, DTT and the test compound of interest. 56 μl of the test reaction is placed in a 384 well plate followed by addition of 1 μl of 2 mM DMSO stock containing the test compound (final compound concentration 30 μM). The plate is preincubated for ˜10 minutes at 30° C. and the reaction initiated by addition of 10 μl of enzyme (final concentration 25 nM). Rates of reaction are obtained using a BioRad Ultramark plate reader (Hercules, Calif.) over a 5 minute read time at 30° C. Ki values are determined according to standard methods.

JAK-3 = biological target: T2, JAK-3 (Homo sapiens, UniProt P52333); assay: JAK3 inhibition assay (ELISA, Poly (Glu, Ala, Tyr) coated plates); conditions: 2 μM ATP
T2 sequence (P52333 1-1124): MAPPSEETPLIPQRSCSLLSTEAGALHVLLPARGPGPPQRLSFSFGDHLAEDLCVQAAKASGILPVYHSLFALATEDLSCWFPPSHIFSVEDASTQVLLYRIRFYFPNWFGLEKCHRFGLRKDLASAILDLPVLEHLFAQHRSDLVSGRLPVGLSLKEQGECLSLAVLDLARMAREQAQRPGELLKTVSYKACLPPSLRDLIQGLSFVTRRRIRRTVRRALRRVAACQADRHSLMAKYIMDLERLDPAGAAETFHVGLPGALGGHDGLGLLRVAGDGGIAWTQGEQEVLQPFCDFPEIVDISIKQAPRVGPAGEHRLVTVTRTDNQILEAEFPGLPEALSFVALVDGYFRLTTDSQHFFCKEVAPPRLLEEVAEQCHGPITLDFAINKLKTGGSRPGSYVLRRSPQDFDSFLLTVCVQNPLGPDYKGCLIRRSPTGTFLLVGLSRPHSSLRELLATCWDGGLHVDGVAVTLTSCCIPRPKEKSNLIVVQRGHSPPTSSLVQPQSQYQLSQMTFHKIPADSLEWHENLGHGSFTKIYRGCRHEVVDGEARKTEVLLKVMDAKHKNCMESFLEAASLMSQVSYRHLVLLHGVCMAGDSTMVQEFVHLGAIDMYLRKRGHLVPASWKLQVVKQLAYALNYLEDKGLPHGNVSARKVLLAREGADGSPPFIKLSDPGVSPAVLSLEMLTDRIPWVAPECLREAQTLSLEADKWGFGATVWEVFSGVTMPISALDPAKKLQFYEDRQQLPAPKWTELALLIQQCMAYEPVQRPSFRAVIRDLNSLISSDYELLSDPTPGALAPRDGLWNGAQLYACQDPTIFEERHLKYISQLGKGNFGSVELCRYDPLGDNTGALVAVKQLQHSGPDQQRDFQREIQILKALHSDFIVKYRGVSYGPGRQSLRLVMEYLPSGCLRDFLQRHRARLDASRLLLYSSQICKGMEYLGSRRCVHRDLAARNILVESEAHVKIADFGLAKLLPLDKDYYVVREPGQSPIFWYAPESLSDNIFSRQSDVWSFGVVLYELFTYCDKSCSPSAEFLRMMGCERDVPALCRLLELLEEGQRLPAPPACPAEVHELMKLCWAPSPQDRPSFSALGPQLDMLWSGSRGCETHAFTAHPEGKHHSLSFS
Protocol: Compound inhibition of JAK was assayed by the method described by G. R. Brown, et al, Bioorg. Med. Chem. Lett. 2000, vol. 10, pp 575-579 in the following manner. Into Maxisorb plates, previously coated at 4° C. with Poly (Glu, Ala, Tyr) 6:3:1 then washed with phosphate buffered saline 0.05% and Tween-(PBST), was added 2 μM ATP, 5 mM MgCl2, and a solution of compound in DMSO. The reaction was started with JAK enzyme and the plates incubated for 60 minutes at 30° C. The plates were then washed with PBST, 100 μL HRP-Conjugated 4G10 antibody was added, and the plate incubated for 90 minutes at 30° C. The plate was again washed with PBST, 100 μL TMB solution is added, and the plates were incubated for another 30 minutes at 30° C. Sulfuric acid (100 μL of 1M) was added to stop the reaction and the plate is read at 450 nm to obtain the optical densities for analysis to determine Ki values.

KDR = KDR (Homo sapiens, UniProt P35968); assay: Inhibition of KDR, coupled enzyme assay; conditions: 300 μM ATP, 37° C.
Protocol: Compounds were screened for their ability to inhibit KDR using a standard coupled enzyme assay (Fox et al., Protein Sci., (1998) 7, 2249). Assays were carried out in a mixture of 200 mM HEPES 7.5, 10 mM MgCl2, 25 mM NaCl, 1 mM DTT and 1.5% DMSO. Final substrate concentrations in the assay were 300 μM ATP (Sigma Chemicals) and 10 μM poly E4Y (Sigma). Assays were carried out at 37° C. and 30 nM KDR. Final concentrations of the components of the coupled enzyme system were 2.5 mM phosphoenolpyruvate, 200 μM NADH, 30 μg/ML pyruvate kinase and 10 μg/ml lactate dehydrogenase.
An assay stock buffer solution was prepared containing all of the reagents listed above, with the exception of ATP and the test compound of interest. 177 μl of the stock solution was placed in a 96 well plate followed by addition of 3 μl of 2 mM DMSO stock containing the test compound (final compound concentration 30 μM). The plate was preincubated for about 10 minutes at 37° C. and the reaction initiated by addition of 20 μl of ATP (final concentration 300 μM). Rates of reaction were obtained using a Molecular Devices plate reader (Sunnyvale, Calif.) over a 5 minute read time at 37° C.

Sequence of KDR (P35968 20-1356): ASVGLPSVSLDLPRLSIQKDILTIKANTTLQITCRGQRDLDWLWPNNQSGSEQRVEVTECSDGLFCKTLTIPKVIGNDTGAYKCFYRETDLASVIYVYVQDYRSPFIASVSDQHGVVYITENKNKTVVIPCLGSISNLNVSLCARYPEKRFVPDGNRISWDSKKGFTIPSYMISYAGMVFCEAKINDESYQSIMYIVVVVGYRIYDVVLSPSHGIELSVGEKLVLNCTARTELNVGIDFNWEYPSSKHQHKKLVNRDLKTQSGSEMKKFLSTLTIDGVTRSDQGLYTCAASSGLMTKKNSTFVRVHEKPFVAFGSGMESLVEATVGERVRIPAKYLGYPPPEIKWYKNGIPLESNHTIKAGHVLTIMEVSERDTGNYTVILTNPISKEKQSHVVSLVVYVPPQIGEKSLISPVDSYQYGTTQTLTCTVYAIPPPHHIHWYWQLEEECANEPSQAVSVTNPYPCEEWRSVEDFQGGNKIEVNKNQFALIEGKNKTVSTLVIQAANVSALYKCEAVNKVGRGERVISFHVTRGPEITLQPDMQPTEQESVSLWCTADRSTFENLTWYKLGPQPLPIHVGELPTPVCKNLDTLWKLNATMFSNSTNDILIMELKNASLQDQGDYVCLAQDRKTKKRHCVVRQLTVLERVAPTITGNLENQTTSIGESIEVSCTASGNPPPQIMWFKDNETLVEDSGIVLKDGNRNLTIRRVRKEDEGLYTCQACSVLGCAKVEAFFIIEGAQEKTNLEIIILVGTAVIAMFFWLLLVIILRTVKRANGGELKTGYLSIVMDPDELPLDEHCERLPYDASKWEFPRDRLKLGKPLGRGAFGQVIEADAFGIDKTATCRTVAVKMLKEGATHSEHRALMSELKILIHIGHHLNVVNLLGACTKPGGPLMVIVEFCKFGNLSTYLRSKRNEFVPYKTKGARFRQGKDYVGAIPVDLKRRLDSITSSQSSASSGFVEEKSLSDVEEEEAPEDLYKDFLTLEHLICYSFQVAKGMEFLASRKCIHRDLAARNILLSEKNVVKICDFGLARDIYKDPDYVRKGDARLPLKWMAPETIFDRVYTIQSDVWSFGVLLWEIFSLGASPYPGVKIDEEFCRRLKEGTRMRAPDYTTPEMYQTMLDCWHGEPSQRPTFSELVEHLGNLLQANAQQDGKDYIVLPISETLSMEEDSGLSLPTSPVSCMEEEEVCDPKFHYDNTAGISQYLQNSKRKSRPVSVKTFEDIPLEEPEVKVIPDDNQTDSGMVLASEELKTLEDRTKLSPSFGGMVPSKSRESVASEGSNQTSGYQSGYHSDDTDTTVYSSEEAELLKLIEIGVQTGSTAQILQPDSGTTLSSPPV

Row | Compound | Ki (CDK-2/Cyclin A) | Ki (JAK-3) | Ki (KDR)
1 | CC(=O)N1[C@H](C)CN(c2cc(-n3cnc(Nc4ccc(NC(=O)N(C)C)cc4)n3)ccn2)C[C@@H]1C [Compound I-77, 3-(4-{1-[2-(4-Acetyl-3,5-dimethyl-piperazin-1-yl)-pyridin-4-yl]-1H-[1,2,4]triazol-3-ylamino}-phenyl)-1,1-dimethyl-urea] | > 1 µM | 0.01 to 1 µM | 0.1 to 1 µM
2 | COC(=O)Nc1ccc(Nc2ncn(-c3ccnc(N4C[C@@H](C)N(C(C)=O)[C@@H](C)C4)c3)n2)cc1 [Compound I-78] | < 0.5 µM | 0.01 to 1 µM | < 0.1 µM
3 | CC(=O)N1[C@H](C)CN(c2cc(-n3cnc(Nc4ccc(NC(=O)C(F)(F)F)cc4)n3)ccn2)C[C@@H]1C [Compound I-79] | < 0.5 µM | < 0.01 µM | < 0.1 µM
4 | CC(=O)N1[C@H](C)CN(c2cc(-n3cnc(Nc4ccc(NC(=O)c5cccs5)cc4)n3)ccn2)C[C@@H]1C [Compound I-80] | < 0.5 µM | 0.01 to 1 µM | 0.1 to 1 µM
5 | CC(=O)N1[C@H](C)CN(c2cc(-n3cnc(Nc4ccc(NC(=O)c5ccco5)cc4)n3)ccn2)C[C@@H]1C [Compound I-81, Furan-2-carboxylic acid (4-{1-[2-(4-acetyl-3,5-dimethyl-piperazin-1-yl)-pyridin-4-yl]-1H-[1,2,4]triazol-3-ylamino}-phenyl)-amide] | 0.5 to 1 µM | 0.01 to 1 µM | < 0.1 µM
6 | CC(=O)N1[C@H](C)CN(c2cc(-n3cnc(Nc4ccc(N)cc4)n3)ccn2)C[C@@H]1C [Compound I-82] | < 0.5 µM | < 0.01 µM | < 0.1 µM
7 | CC(=O)N1[C@H](C)CN(c2cc(-n3cnc(Nc4ccc(N5CCOCC5)cc4)n3)ccn2)C[C@@H]1C [Compound I-85, 1-(2,6-Dimethyl-4-{4-[3-(4-morpholin-4-yl-phenylamino)-[1,2,4]triazol-1-yl]-pyridin-2-yl}-piperazin-1-yl)-ethanone] | < 0.5 µM | 0.01 to 1 µM | 0.1 to 1 µM
8 | CCCOC(=O)Nc1ccc(Nc2ncn(-c3ccnc(N4C[C@@H](C)N(C(C)=O)[C@@H](C)C4)c3)n2)cc1 [Compound I-88] | < 0.5 µM | 0.01 to 1 µM | 0.1 to 1 µM
9 | CC(=O)N1[C@H](C)CN(c2cc(-n3cnc(Nc4ccc(NC(=O)OC(C)C)cc4)n3)ccn2)C[C@@H]1C [Compound I-89] | 0.5 to 1 µM | 0.01 to 1 µM | 0.1 to 1 µM
10 | CC(=O)N1[C@H](C)CN(c2cc(-n3cnc(Nc4ccc(NC(=O)OCC(C)C)cc4)n3)ccn2)C[C@@H]1C [Compound I-90] | 0.5 to 1 µM | 0.01 to 1 µM | 0.1 to 1 µM
11 | CC(=O)N1[C@H](C)CN(c2cc(-n3cnc(Nc4ccc(NC(=O)OCC(C)(C)C)cc4)n3)ccn2)C[C@@H]1C [Compound I-91] | 0.5 to 1 µM | 0.01 to 1 µM | 0.1 to 1 µM
12 | CC(=O)N1[C@H](C)CN(c2cc(-n3cnc(Nc4ccc(N5CCN(S(=O)(=O)c6ccc(C)cc6)CC5)cc4)n3)ccn2)C[C@@H]1C [Compound I-92] | 0.5 to 1 µM | < 0.01 µM | < 0.1 µM
13 | O=C(Nc1cc(-n2cnc(Nc3ccccc3)n2)ccn1)C1CCCCC1 [Compound I-93] | 0.5 to 1 µM | > 1 µM | 0.1 to 1 µM
14 | O=C(CC1CCCC1)Nc1cc(-n2cnc(Nc3ccccc3)n2)ccn1 [Compound I-94, 2-Cyclopentyl-N-[4-(3-phenylamino-[1,2,4]triazol-1-yl)-pyridin-2-yl]-acetamide] | > 1 µM | 0.01 to 1 µM | 0.1 to 1 µM
15 | O=C(CCc1ccccc1)Nc1cc(-n2cnc(Nc3ccccc3)n2)ccn1 [Compound I-95] | 0.5 to 1 µM | > 1 µM | 0.1 to 1 µM
16 | O=C(Cc1ccccc1)Nc1cc(-n2cnc(Nc3ccccc3)n2)ccn1 [Compound I-96] | < 0.5 µM | > 1 µM | 0.1 to 1 µM
17 | CC(=O)N1[C@H](C)CN(c2cc(-n3cnc(Nc4ccc(N5CCN(C(=O)OC(C)(C)C)CC5)cc4)n3)ccn2)C[C@@H]1C [Compound I-97, 4-(4-{1-[2-(4-Acetyl-3,5-dimethyl-piperazin-1-yl)-pyridin-4-yl]-1H-[1,2,4]triazol-3-ylamino}-phenyl)-piperazine-1-carboxylic acid tert-butyl ester] | < 0.5 µM | 0.01 to 1 µM | < 0.1 µM
18 | CCNC(=O)Nc1ccc(Nc2ncn(-c3ccnc(N4C[C@@H](C)N(C(C)=O)[C@@H](C)C4)c3)n2)cc1 [Compound I-98, 1-(4-{1-[2-(4-Acetyl-3,5-dimethyl-piperazin-1-yl)-pyridin-4-yl]-1H-[1,2,4]triazol-3-ylamino}-phenyl)-3-ethyl-urea] | < 0.5 µM | < 0.01 µM | < 0.1 µM
19 | CCCNC(=O)Nc1ccc(Nc2ncn(-c3ccnc(N4C[C@@H](C)N(C(C)=O)[C@@H](C)C4)c3)n2)cc1 [Compound I-99] | < 0.5 µM | 0.01 to 1 µM | < 0.1 µM
20 | CC(=O)N1[C@H](C)CN(c2cc(-n3cnc(Nc4ccc(NC(=O)NC(C)C)cc4)n3)ccn2)C[C@@H]1C [Compound I-100] | < 0.5 µM | < 0.01 µM | < 0.1 µM
21 | CC(=O)N1[C@H](C)CN(c2cc(-n3cnc(Nc4ccc(NC(=O)NC(C)(C)C)cc4)n3)ccn2)C[C@@H]1C [Compound I-101] | 0.5 to 1 µM | 0.01 to 1 µM | 0.1 to 1 µM
22 | CC(C)(C)CC(=O)Nc1cc(-n2cnc(Nc3ccccc3)n2)ccn1 [Compound I-102] | > 1 µM | > 1 µM | 0.1 to 1 µM
23 | c1ccc(-n2cnc(Nc3ccnc(N4CCOCC4)c3)n2)cc1 [Compound I-105] | 0.5 to 1 µM | 0.01 to 1 µM | 0.1 to 1 µM
24 | c1ccc(-n2cnc(Nc3ccc(N4CCOCC4)cc3)n2)cc1 [Compound I-106] | > 1 µM | 0.01 to 1 µM | 0.1 to 1 µM
25 | c1ccc(-n2cnc(Nc3ccnc(NCCN4CCOCC4)c3)n2)cc1 [Compound I-107] | > 1 µM | > 1 µM | > 1 µM
